Measurements from US10507212B2, “Method for use of homopiperazinium compounds in the treatment of cancer” (UNIVERSITÉ LAVAL, priority 2014, dated 2019).
Where two headings read alike, the source gives them in different places.

Legend:
[1] = test system: SK-MEL-28; assay: Anti-proliferative MTT assay, SK-MEL-28; format: cell-based; settings: Homo sapiens
Experimental: (§1) The effect of ASM-024 on the growth of MCF7, SK-BR-3, MDA-MB-231, BT-474 (mammary adenocarcinomas), SK-OV/3 (ovary adenocarcinoma), PC3 (prostate adenocarcinoma) SK-MEL-28(skin melanoma) and C6 (tumor cell glioma) was evaluated. Cells were cultured in RPMI medium and incubated with different concentrations of ASM-024. Cell proliferation was measured on days 3 and 6 by the MTT colorimetric assay. Absorbance at 576-690 nm was analyzed with a microplate reader and expressed as optical density (OD) and as a percentage of the value of corresponding untreated cells. The IC50 was determined as the drug concentration required to inhibit cell growth by 50% from a plot of percent cell viability from control untreated cells versus treated cells.

[2] = test system: H82 small cell lung carcinoma; assay: Cell proliferation assay, H82 (CellTiter fluorescence); format: cell-based; settings: for IC50: Homo sapiens
Experimental: (§2) In vitro experiments were conducted on four cancer cell lines: the A549 adenocarcinoma cell line, the H520 squamous cell carcinoma the H82 small cell lung carcinoma and Calu 3 lung adenocarcinoma. The A549 tumor cells, were plated at a density of 1.5×10^4 cells per mL and let to adhere on 96-well microplates in F12K cell culture medium enriched with 10% fetal calf serum (FCS). The H520, H82 and Calu 3 tumor cells were plated at a density of 5×10^4 cells per mL in RPMI+10% FCS. After 24 h in culture, the medium was changed and cells were exposed to ASM-024 at concentrations ranging from 10^−7M to 10^−3M (FIGS. 1A-1C). After 3 and 6 days in culture, cell growth was quantified using the MTT colorimetric assay (M2128, Sigma) at 575-690 nm or the Cell Titer fluorescence assay (G8080, Promega) at 560/590 nm.
(§3) In an another set of experiments, a series of 16 other homopiperazinium compounds, in addition to ASM-024, were tested for their anti-proliferative effect on the four tumor cell lines described above after up to 6 days in culture at concentrations of 10^-7M to 10^-3M. (FIGS. 4A-4E) Cell growth was quantified using the MTT colorimetric assay for the A-549, H520 and Calu 3 cell lines and the CellTiter Fluorescence assay.for the H82 tumor cell line These are established method of determining viable cell number in proliferation studies.

[3] = test system: A549 adenocarcinoma cell line; assay: Cell proliferation assay, A549 (MTT); settings: for IC50: Tosylate
Experimental: as §2, §3

[4] = test system: MCF7; assay: Anti-proliferative MTT assay, MCF7; format: cell-based; settings: Homo sapiens
Experimental: as §1

[5] = test system: C6; assay: Anti-proliferative MTT assay, C6; format: cell-based; settings: Rattus norvegicus
Experimental: as §1

[6] = test system: SK-BR-3; assay: Anti-proliferative MTT assay, SK-BR-3; format: cell-based; settings: Homo sapiens
Experimental: as §1

[7] = test system: A549 lung adenocarcinoma; assay: In vitro combination treatment with cisplatin or taxol, A549 (MTT); format: cell-based, human; settings: ASM-024 alone, 3 days of drug treatment
Experimental: The concomitant effect of ASM-024 and cisplatin or taxol on the proliferation of A549 lung adenocarcinoma and MCF7 breast cancer adenocarcinoma cells was assessed in vitro.
A549 cells (3.0×10^3cells/well) were first cultured with 10% FBS in F12K media and MCF7 cells (10×10^3 cells/well) with 10% FBS in EMEM media for 24 hours to allow cells to adhere to the plate at 37° C. in a humidified incubator with 5% CO2. The next day, the media was replaced in medium containing appropriate drug concentrations […] for an additional 72 hours. Cell viability was quantified using the MTT colorimetric assay (M2128, Sigma) at 575-690 nm.

[8] = test system: Calu 3 lung adenocarcinoma; assay: Cell proliferation assay, Calu 3 (MTT); format: cell-based; settings: Homo sapiens
Experimental: as §2, §3

[9] = test system: A549 cells; assay: In vivo antitumor assay, A549 tumor cell-bearing nu/nu mice (Example 27); settings: 30 mg/kg daily, subcutaneous or intraperitoneal
Experimental: For the in vivo antitumor assay, nu/nu mice were inoculated subcutaneously in the flank of mice with 2×10^6 A549 cells in sterile PBS mixed with 50% matrigel. Two days later ASM-024 was administered daily by subcutaneous (at a site close to the tumor) or intraperitoneal delivery at the dose of 30 mg/kg for up to 50 days. When palpable, tumor length and width were measured with a caliper and tumor volume calculated according to the formula Volume=(width2×length)/2.
FIGS. 6A, 6B, 7A and 7B are illustrating the antitumor effect of ASM-024 in A549 tumor cell-bearing mice after 51 days. The antitumor effect of each delivery mode was evaluated by measuring tumor volume (FIGS. 6A and 6B) and weight (FIGS. 7A and 7B). Values are presented as the mean±standard deviation.

[10] = test system: PC3; assay: Anti-proliferative MTT assay, PC3; format: cell-based; settings: Homo sapiens
Experimental: as §1

[11] = test system: A549 human lung carcinoma cells; assay: In vivo antitumor assay, A549 xenograft in Balb/c nude mice (Example 29); settings: day 49; ASM-024 45 mg/kg s.c. daily day 14-38; taxol 10 mg/kg i.p. days 21, 28, 35; cisplatin 2.5 mg/kg i.p. days 28, 35
Experimental: For the in vivo antitumor assay, A549 human lung carcinoma cells (3.5×106) in 50% F12K medium (Matrigel) were implanted subcutaneously in the flank of Balb/c nude mice (nu/nu, Charles River) and allowed to grow for 14 days. ASM-024 was administered daily by subcutaneous delivery at the dose of 45 mg/kg from day 14 to day 38 post cell inoculation. Taxol was administrated intraperitoneally at the dose of 10 mg/kg on days 21, 28 and 35. Cisplatin was administrated intraperioneally at the dose of 2.5 mg/kg on days 28 and 35. From day 14 to day 49, tumor length and width were measured once or twice a week with a caliper and tumor volume calculated according to the formula Volume=(width2×length)/2.

IC50 ([1]; 72 h, SK-MEL-28, day 3, read-out: IC50 Day 3): > 800 µM
IC50 ([1]; 144 h, SK-MEL-28, day 6, read-out: IC50 Day 6): 259 ± 63 µM
IC50 ([2]; NCI-H82, 72 h, H82, day 3 in culture, read-out: IC50 Day 3): 314 ± 205 µM
IC50 ([2]; NCI-H82, 144 h, H82, day 6 in culture, read-out: IC50 Day 6): 218 ± 76 µM
IC50 ([3]; read-out: IC50 Day 3, A549, day 3 in culture): 56 ± 20 µM
IC50 ([3]; read-out: IC50 Day 6, A549, day 6 in culture): 59 ± 21 µM
IC50 ([4]; 72 h, MCF7, day 3, read-out: IC50 Day 3): 470 ± 364 µM
IC50 ([4]; 144 h, MCF7, day 6, read-out: IC50 Day 6): 209 ± 42 µM
IC50 ([6]; 72 h, SK-BR-3, day 3, read-out: IC50 Day 3): > 1000 µM
IC50 ([6]; 144 h, SK-BR-3, day 6, read-out: IC50 Day 6): 197 ± 67 µM
IC50 ([8]; 72 h, Calu 3, day 3 in culture, read-out: IC50 Day 3): 685 ± 320 µM
IC50 ([8]; 144 h, Calu 3, day 6 in culture, read-out: IC50 Day 6): 192 ± 217 µM
IC50 ([10]; PC-3, 72 h, PC3, day 3, read-out: IC50 Day 3): > 700 µM
IC50 ([10]; PC-3, 144 h, PC3, day 6, read-out: IC50 Day 6): 176 ± 29 µM
Compound: CC[N+]1(CC)CCCN(c2ccccc2)CC1.Cc1ccc(S(=O)(=O)[O-])cc1 [ASM-024, 1,1-Diethyl-4-phenyl-homopiperazinium Tosylate]
cell proliferation / cell growth inhibition (in words) ([2]; H82, day 3 and day 6, text on figures): dose-dependent decrease in cell proliferation
cell proliferation / cell growth inhibition (in words) ([3]; A549, day 3 and day 6, text on figures): dose-dependent decrease in cell proliferation
IC50 ([5]; 72 h, C6, day 3, read-out: IC50 Day 3): 353 ± 52 µM
IC50 ([5]; 144 h, C6, day 6, read-out: IC50 Day 6): 186 ± 27 µM
A549 cell growth inhibition [7]: dose-dependent growth inhibition of cell proliferation
Tumor growth, as determined by mean tumor volumes ([9]; 51 days of observation, vs control mice): reduced
Mean tumor weight after surgical resection ([9]; after 51 days, vs vehicle-treated control mice): reduction in tumor mass
A549 human carcinoma tumor growth (tumor volume) [11]: decrease in A549 human carcinoma tumor growth
